Source: ChEMBL document CHEMBL1123932, “Berbanes: a new class of selective alpha 2-adrenoceptor antagonists” (J Med Chem, 1987)

Experiments:
[1] = biological target: T1, Adrenergic receptor alpha-1 (Rattus norvegicus, UniProt P15823+P23944+P43140); test: Antagonistic activity against postsynaptic Alpha-1 adrenergic receptor in isolated rat vas deferens using (-)-phenylephrine as agonist; format: functional, tissue-based
T1 sequence (P15823 whole entry): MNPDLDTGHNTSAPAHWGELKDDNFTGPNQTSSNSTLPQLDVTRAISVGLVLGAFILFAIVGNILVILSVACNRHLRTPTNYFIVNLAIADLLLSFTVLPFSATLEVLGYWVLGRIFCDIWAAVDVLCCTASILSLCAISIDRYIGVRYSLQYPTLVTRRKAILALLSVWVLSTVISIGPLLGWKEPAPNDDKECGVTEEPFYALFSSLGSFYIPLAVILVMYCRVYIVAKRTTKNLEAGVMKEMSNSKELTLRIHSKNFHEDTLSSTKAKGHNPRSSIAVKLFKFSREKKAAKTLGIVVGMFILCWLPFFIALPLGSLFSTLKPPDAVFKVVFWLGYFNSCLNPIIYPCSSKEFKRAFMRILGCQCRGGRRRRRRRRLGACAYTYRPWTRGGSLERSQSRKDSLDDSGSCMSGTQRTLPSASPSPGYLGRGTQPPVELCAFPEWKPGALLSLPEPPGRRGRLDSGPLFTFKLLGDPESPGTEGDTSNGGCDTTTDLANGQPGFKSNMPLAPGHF
T1 sequence (P23944 whole entry): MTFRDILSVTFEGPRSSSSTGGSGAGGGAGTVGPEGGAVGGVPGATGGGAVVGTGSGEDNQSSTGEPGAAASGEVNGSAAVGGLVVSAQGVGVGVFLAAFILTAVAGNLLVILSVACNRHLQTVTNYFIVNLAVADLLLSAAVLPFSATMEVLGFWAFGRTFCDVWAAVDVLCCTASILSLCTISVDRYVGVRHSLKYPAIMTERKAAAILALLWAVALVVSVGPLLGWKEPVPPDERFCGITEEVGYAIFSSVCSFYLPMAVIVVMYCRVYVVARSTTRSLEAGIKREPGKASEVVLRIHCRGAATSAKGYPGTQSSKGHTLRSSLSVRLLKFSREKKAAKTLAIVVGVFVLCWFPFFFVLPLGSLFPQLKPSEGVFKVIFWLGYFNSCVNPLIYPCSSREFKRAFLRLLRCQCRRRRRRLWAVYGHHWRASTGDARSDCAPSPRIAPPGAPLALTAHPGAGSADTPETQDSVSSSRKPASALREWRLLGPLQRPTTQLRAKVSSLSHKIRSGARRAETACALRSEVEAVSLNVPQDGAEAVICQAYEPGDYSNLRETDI
T1 sequence (P43140 whole entry): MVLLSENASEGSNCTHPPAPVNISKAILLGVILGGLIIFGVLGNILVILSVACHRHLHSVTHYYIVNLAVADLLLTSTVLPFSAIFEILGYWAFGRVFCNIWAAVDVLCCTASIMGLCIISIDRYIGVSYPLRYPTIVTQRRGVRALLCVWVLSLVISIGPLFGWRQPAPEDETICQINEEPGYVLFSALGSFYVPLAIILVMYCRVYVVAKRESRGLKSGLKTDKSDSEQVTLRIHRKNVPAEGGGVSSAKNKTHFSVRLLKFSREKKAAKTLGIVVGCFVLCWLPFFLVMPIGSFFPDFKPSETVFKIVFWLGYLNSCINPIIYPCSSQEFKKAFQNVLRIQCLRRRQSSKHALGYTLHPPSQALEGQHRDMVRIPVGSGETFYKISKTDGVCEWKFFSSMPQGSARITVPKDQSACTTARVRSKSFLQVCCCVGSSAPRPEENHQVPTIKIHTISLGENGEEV

[2] = biological target: T2, Adrenergic receptor alpha-2 (Rattus norvegicus, UniProt P22086+P19328+P22909); test: Antagonistic activity against presynaptic alpha-2 adrenergic receptor in isolated rat vas deferens using xylazine as agonist; format: functional, tissue-based
T2 sequence (P22086 whole entry): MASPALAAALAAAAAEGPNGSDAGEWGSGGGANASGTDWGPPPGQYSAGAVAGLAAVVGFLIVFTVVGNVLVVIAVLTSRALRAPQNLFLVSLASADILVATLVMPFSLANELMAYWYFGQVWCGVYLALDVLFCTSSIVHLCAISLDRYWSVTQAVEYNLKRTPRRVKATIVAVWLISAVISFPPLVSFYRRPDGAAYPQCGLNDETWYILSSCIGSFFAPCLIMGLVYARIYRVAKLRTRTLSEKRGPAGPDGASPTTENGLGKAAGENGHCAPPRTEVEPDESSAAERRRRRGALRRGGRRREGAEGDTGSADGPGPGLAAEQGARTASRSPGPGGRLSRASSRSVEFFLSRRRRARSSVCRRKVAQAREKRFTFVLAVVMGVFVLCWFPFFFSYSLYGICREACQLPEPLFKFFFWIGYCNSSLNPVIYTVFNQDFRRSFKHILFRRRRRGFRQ
T2 sequence (P19328 whole entry): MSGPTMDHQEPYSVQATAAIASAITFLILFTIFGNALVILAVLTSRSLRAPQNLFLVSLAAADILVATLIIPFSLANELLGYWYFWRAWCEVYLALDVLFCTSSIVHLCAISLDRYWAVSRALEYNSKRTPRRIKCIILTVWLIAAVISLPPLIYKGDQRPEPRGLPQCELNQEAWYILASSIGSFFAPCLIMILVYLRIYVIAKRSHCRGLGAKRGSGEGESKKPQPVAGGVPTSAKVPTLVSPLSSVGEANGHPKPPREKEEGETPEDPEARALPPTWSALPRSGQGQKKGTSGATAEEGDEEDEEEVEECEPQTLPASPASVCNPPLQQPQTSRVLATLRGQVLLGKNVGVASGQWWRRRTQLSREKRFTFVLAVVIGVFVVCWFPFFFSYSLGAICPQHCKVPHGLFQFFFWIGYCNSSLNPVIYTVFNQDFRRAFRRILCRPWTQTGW
T2 sequence (P22909 whole entry): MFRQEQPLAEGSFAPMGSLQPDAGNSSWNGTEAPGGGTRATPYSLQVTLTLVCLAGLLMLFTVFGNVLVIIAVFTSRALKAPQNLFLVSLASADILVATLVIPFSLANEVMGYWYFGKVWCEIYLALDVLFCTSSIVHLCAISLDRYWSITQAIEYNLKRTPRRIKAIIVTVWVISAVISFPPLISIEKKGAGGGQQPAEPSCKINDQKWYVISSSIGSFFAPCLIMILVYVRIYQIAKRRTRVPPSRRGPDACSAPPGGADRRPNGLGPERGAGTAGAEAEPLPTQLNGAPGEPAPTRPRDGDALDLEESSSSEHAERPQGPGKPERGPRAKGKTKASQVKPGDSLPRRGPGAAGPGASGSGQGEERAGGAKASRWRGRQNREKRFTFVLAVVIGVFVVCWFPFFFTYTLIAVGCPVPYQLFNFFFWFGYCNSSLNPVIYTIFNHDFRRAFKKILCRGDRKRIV

[3] = biological target: Adrenergic receptor alpha-2 (Cavia porcellus); test: Antagonistic activity against adrenergic alpha-2 receptor in longitudinal muscle strip of the guinea pig ileum using l-norepinephrine as agonist

## CCOC(=O)[C@H]1[C@H]2C[C@H]3c4cc5c(cc4CCN3C[C@H]2CC[C@H]1O)OCO5
[1]
  pA2: 5.51

## COC(=O)[C@@H]1C[C@@H]2CN3CCc4cc5c(cc4[C@@H]3C[C@@H]2C[C@@H]1O)OCO5
[1]
  pA2: 4.8

## COC(=O)[C@H]1C[C@H]2CN3CCc4cc5c(cc4[C@@H]3C[C@@H]2C[C@@H]1O)OCO5
[1]
  pA2: 5.98

## Oc1cc2c(cc1O)[C@@H]1C[C@@H]3C[C@H](O)CC[C@@H]3CN1CC2
[2]
  pA2: 5.74
[1]
  pA2: < 4

## OC[C@@H]1[C@H]2C[C@H]3c4cc5c(cc4CCN3C[C@@H]2CC[C@H]1O)OCO5
[1]
  pA2: 5.25

## COc1cc2c(cc1OC)[C@@H]1C[C@@H]3C[C@H](OC(C)=O)CC[C@@H]3CN1CC2
[2]
  pA2: 6.61
[1]
  pA2: 4.54
[3]
  pA2: 6.19

## N#C[C@@H]1C[C@@H]2CN3CCc4cc5c(cc4[C@@H]3C[C@@H]2C[C@@H]1O)OCO5
[2]
  pA2: 6.1
[1]
  pA2: < 4
[3]
  pA2: 6.67

## CC(=O)O[C@@H]1CC[C@@H]2CN3CCc4cc5c(cc4[C@@H]3C[C@@H]2C1)OCO5
[2]
  pA2: 7.3
[1]
  pA2: 4.55
[3]
  pA2: 8.21

## OC[C@@H]1C[C@@H]2CN3CCc4cc5c(cc4[C@@H]3C[C@@H]2C[C@@H]1O)OCO5
[1]
  pA2: < 4

## COc1cc2c(cc1OC)[C@@H]1C[C@@H]3C[C@H](O)CC[C@@H]3CN1CC2
[2]
  pA2: 6.31
[1]
  pA2: < 4
[3]
  pA2: < 4

## CCOc1cc2c(cc1OCC)[C@@H]1C[C@@H]3C[C@H](O)CCC3CN1CC2 (stereo partly specified)
[2]
  pA2: 6.41
[1]
  pA2: < 4
